# Tests used:
# [1] = tested on: neointima formation in catheter-injured carotid artery; experiment: Neointima formation after balloon catheter injury of the left carotid artery in rats; type: in vivo, Sprague Dawley (SD) rats; details: for % of Lumen Occlusion by Neointima (in catheter-injured carotid artery): mean ± SEM, 6 rats
# Source text: SD rats were subjected to left carotid artery injury by the balloon technique according to the method described by Indolfi et al (Circulation, 92:1230-1235 (1995)). In this procedure, rats were anesthetized with chloral hydrate (0.35 g/kg) and a balloon catheter (2F Fogarty, Edwards Laboratories) was introduced through the left external carotid artery into the common carotid artery. The balloon was inflated to a pressure of 2.2 kg/cm^2 by compressed carbogen gas mixture (95% O2 and 5% CO2) and passed three times (three cycles) along the common carotid artery. The catheter was removed, the left external carotid artery was ligated, and the wound was closed. Formation of neointima in the catheter-injured carotid artery occurred and slowed considerably after 14 days (Clowes and Clowes, Lab. Invest., 52:611-616 (1985)). The right common carotid artery was left intact and served as the control artery.
# Following the surgery, each animal was placed in a cage. The animals had access to water and rat chow ad libitum. The animals were randomly divided into the control group and treatment group. Each group consisted of 6 animals. The treatment group was orally administered various doses of angiotensin IV (60-360 nmoles/kg/day or 46.5-279 μg/kg/day) dissolved in 0.5 ml saline for 13 days commencing on the day of surgery. Control animals were balloon catheterized animals that were administered saline instead of the angiotensin IV solution.
# On the fourteenth day following balloon catheterization, animals were anesthetized as before and both the left and right common arteries of each rat were fixed by perfusion at 120 mm Hg with 100 ml of saline followed by 250 ml of 0.1 M phosphate buffer (pH 7.4) containing 4% paraformaldehyde and 1% glutaralaldehyde and processed for paraffin embedment. Sections of 10 μm thickness were prepared and stained with toluidine blue. Twenty of such sections were cut from the midportion of the artery towards the distal end and used for morphometric evaluation of neointima formation. The area of the medial smooth muscle cells, lumen, and neointima of each section was morphometrically quantitated using an image analysis system consisting of a BX40 light microscope (Olympus, Japan) fitted with a KY-F55B color video camera (JVC, Japan) and a Pentium 166 MHz/MMX microcomputer (Datamini, Singapore) installed with an Image Pro Plus 3.0 System (Media Cybernetics, USA) for Windows 95™. The extent of neointima formation was expressed as a percentage of occlusion of the lumen by the neointima.
# [2] = tested on: experimentally-induced cardiac hypertrophic rats; experiment: Cardiac hypertrophy induced by abdominal aorta coarctation in rats; type: in vivo, Sprague Dawley (SD) rats; details: for Hypertrophy Index (ventricle weight in mg/body weight in g): aorta-coarcted rats, mean ± SEM, 10 rats
# Description: The experimental protocol for induction of cardiac hypertrophy in rats was carried out as described by Everett et al (Hypertension, 23:587-592 (1994)). In this procedure, each rat was anaesthetized with 7% w/v chloral hydrate (0.35 g/kg, intraperitoneally). An incision was made in the ventral abdominal wall to access the suprarenal portion of the abdominal aorta. This portion of the abdominal aorta was dissected free and a blunt 23-guage needle was placed adjacent to the aorta. A ligature was placed around the blunt needle and the aorta. The blunt needle was then removed, leaving the aorta constricted to the size of the needle. The resulting coarctation resisted the normal flow of blood from the heart to the lower portion of the body and placed an extra load on the heart. This extra load causes hypertrophy of the heart, especially the left ventricle.
# Following surgery, each animal was placed in a cage. The animals had access to water and rat chow ad libitum. The animals were randomly divided into the control group and treatment group. Each group consisted of 10 animals. The treatment group was orally administered various doses of angiotensin IV (95-380 nmoles/kg/day or 74-294 μg/kg/day) dissolved in 0.5 ml saline for four days commencing on the day of surgery. Control animals with coarcted abdominal aorta were administered saline instead of the angiotensin IV solution. Sham animals were animals that underwent the same surgical operations but their aortas were not coarcted.
# On the fifth day following surgery, animals were anaesthetised as before. The heart of each animal was then excised, the ventricles dissected and the weight of the ventricles was determined. The index of the ventricle weight (in mg) over the body weight of the animal (in g) was taken as the index of hypertrophy. For sham-operated animals the index was around 2.6, for aorta-coarcted animas the index was above 3.7.
# Data were expressed as mean ±SEM. Significant differences were determined by one-way ANOVA and post hoc Newman Kleuf test. The accepted level of significance was p<0.05. […] The effect was dose-dependent and significant anti-cardiac hypertrophic action was brought about by an oral dose of 190 nmoles/kg/day (or 147 μg/kg/day).
smiles,measurement,setting,value
CC[C@H](C)[C@H](NC(=O)[C@H](Cc1ccc(O)cc1)NC(=O)[C@@H](N)C(C)C)C(=O)N[C@@H](Cc1cnc[nH]1)C(=O)N1CCC[C@H]1C(=O)N[C@@H](Cc1ccccc1)C(=O)O [angiotensin IV],% of Lumen Occlusion by Neointima (in catheter-injured carotid artery),[1]; 60 nmole/kg/day oral for 13 days,52 ± 5%
same,% of Lumen Occlusion by Neointima (in catheter-injured carotid artery),[1]; 120 nmole/kg/day oral for 13 days,48 ± 1%
same,% of Lumen Occlusion by Neointima (in catheter-injured carotid artery),"[1]; 240 nmole/kg/day oral for 13 days, significantly different from Control (p < 0.05)",*43 ± 2%
same,% of Lumen Occlusion by Neointima (in catheter-injured carotid artery),"[1]; 360 nmole/kg/day oral for 13 days, significantly different from Control (p < 0.05)",*44 ± 2%
same,oral dose bringing about maximum anti-neointima action,"[1]; oral for 13 days, action dose-dependent, or 186 μg/kg/day",240 nmol/kg/day
same,effect on the thickness of the medial muscle layer,"[1]; oral, 13 days, catheter-injured carotid artery",no significant effect
same,Hypertrophy Index (ventricle weight in mg/body weight in g),[2]; 95 nmole/kg/day oral for 4 days,3.73 ± 0.04
same,Hypertrophy Index (ventricle weight in mg/body weight in g),"[2]; 190 nmole/kg/day oral for 4 days, significantly different from Control (p < 0.05)",*3.23 ± 0.07
same,Hypertrophy Index (ventricle weight in mg/body weight in g),"[2]; 380 nmole/kg/day oral for 4 days, significantly different from Control (p < 0.05)",*3.40 ± 0.07
same,oral dose bringing about significant anti-cardiac hypertrophic action,"[2]; oral, 4 days, effect dose-dependent, or 147 μg/kg/day",190 nmol/kg/day
